The target in assay [1] is CDK2/Cyclin E1 (Homo sapiens, UniProt P24941). The assay is described as follows: ADP-Glo Luminescent Kinase Assay (CDK2/E1-37C). Format: biochemical. Particulars: 0.18 nM CDK2/Cyclin E1, 100 μM ATP, Histone H1, 37° C.; read-out: ADPGLO (CDK2/E1-37C): IC50. The protocol:
Inhibition of CDK2/Cyclin E1 activity by the presence of small molecules was evaluated using ADP-Glo Luminescent Kinase Assay (Promega). Activated CDK2/Cyclin E1 was incubated with its substrate Histone H1 (SignalChem H10-54N) in the kinase reaction buffer (100 μM ATP, 50 mM HEPES pH 7.5, 10 mM MgCl2, 1 mM EDTA, 2 mM DTT, 0.01% Brij35, 0.5 mg/mL BSA). Luminescence was recorded with an Envision plate reader (PerkinElmer).
Dose titrations of inhibitors in 100% DMSO were combined with 0.36 nM CDK2/Cyclin E1 in reaction buffer. The mixtures were incubated for 60 minutes at 37° C. before the addition of ATP and Histone H1 substrate to initiate the kinase reaction. The final conditions were 0.18 nM CDK2/Cyclin E1, 100 μM ATP, and […] Histone H1. The reactions were incubated at 37° C. for 90 minutes before being stopped with the addition of ADP-Glo reagent. This mixture was incubated at room temperature for 60 minutes before Kinase Detection Solution is added to generate luminescence. The stopped reactions were analyzed on an Envision plate reader. The conversion ratios were normalized to yield % activity, plotted against compound concentration, and fit to a four-parameter equation to determine the IC50 for each compound.

Assay [2] deals with Kuramochi cells RB-WT. The assay can be described thus: IncuCyte Kuramochi cell proliferation assay, RB-WT. Type of assay: cell-based. Particulars: 72 hours, cell count. The protocol:
(§1) IncuCyte® assay was used to measure the effect of disclosed compounds on cell proliferation. Fluorescent microscopy images of cells were taken immediately after compound treatment and 72 hours later. Image analysis software was used to obtain cell counts as a function of compound concentration. Kuramochi cells labeled with mApple-H2B were seeded on 384-well assay-ready plates. Plates were placed in an IncuCyte® (Sartorius) and scanned at 0 and 72 hours. IncuCyte® software was used to count the number of fluorescent nuclei in each well. The fold change in cell count from 0 to 72 hours in wells treated with increasing compounds concentrations (10 pts, 1/2 log dilution, 20 µM top concentration) was normalized to DMSO control wells. The normalized cell counts were fit with dose response curves and a GI50 was calculated.

Assay [3] has as its system Kuramochi cells RB-KO. The assay is described as follows: IncuCyte Kuramochi cell proliferation assay, RB-KO. Type of assay: cell-based. As to conditions: 72 hours, cell count, batch mean. The protocol:
as §1

Consider `CC1(C)C[C@@H]1C(=O)N1CC2(CN(C(=O)c3cnn(Cc4ccc(F)cc4)c3)CC2COCc2cccc(C3CCC4(CCC4)CC3)c2C(=O)O)C1` (stereo partly drawn) [Compound I-88, 2-(((2-((S)-2,2-dimethylcyclopropane-1-carbonyl)-6-(1-(4-fluorobenzyl)-1H-pyrazole-4-carbonyl)-2,6-diazaspiro[3.4]octan-8-yl)methoxy)methyl)-6-(spiro[3.5]nonan-7-yl)benzoic acid], for which the IC50 in assay [1] is at most 0.5 µM; in assay [2], 0.5 to 5 µM; in assay [3], above 10 µM.
As for `CC1(C(=O)N2CC3(CN(C(=O)c4cnn(Cc5ccc(F)cc5)c4)C[C@H]3COCc3cccc(C4CCC(C(F)(F)F)CC4)c3C(=O)O)C2)CCO1` (stereo partly drawn) [Compound I-93, 2-((((8S)-6-(1-(4-fluorobenzyl)-1H-pyrazole-4-carbonyl)-2-(2-methyloxetane-2-carbonyl)-2,6-diazaspiro[3.4]octan-8-yl)methoxy)methyl)-6-(4-(trifluoromethyl)cyclohexyl)benzoic acid], the figures for the IC50 in assay [1], in assay [2] and in assay [3] were 0.5 to 5 µM, above 10 µM and above 10 µM, respectively.
`CC(C)(C(=O)N1CC2(CN(C(=O)c3cnn(Cc4ccc(F)cc4)c3)C[C@H]2COCc2cccc(C3CCC(C(F)(F)F)CC3)c2C(=O)O)C1)C(F)(F)F` (stereo partly drawn) [Compound I-94, (S)-2-(((6-(1-(4-fluorobenzyl)-1H-pyrazole-4-carbonyl)-2-(3,3,3-trifluoro-2,2-dimethylpropanoyl)-2,6-diazaspiro[3.4]octan-8-yl)methoxy)methyl)-6-(4-(trifluoromethyl)cyclohexyl)benzoic acid]: the values for the IC50 in assay [1], in assay [2] and in assay [3] were at most 0.5 µM, 0.5 to 5 µM and above 10 µM, respectively.
As for `O=C(O)c1c(COC[C@@H]2CN(C(=O)c3cnn(Cc4ccc(F)cc4)c3)CC23CN(C(=O)C2(C(F)(F)F)CCC2)C3)cccc1C1CCC(C(F)(F)F)CC1` (stereo partly drawn) [Compound I-95, (S)-2-(((6-(1-(4-fluorobenzyl)-1H-pyrazole-4-carbonyl)-2-(1-(trifluoromethyl)cyclobutanecarbonyl)-2,6-diazaspiro[3.4]octan-8-yl)methoxy)methyl)-6-(4-(trifluoromethyl)cyclohexyl)benzoic acid], the IC50 in assay [1] is at most 0.5 µM; in assay [2], 0.5 to 5 µM; in assay [3] it was above 10 µM.
The corresponding values for `O=C(O)c1c(COC[C@@H]2CN(C(=O)c3cnn(Cc4ccc(F)cc4)c3)CC23CN(C(=O)C2CCO2)C3)cccc1C1CCC(C(F)(F)F)CC1` (stereo partly drawn) [Compound I-96] are 0.5 to 5 µM, above 10 µM and above 10 µM.
As to `CC(C(=O)N1CC2(CN(C(=O)c3cnn(Cc4ccc(F)cc4)c3)C[C@H]2COCc2cccc(C3CCC(C(F)(F)F)CC3)c2C(=O)O)C1)C(F)(F)F` (stereo partly drawn) [Compound I-97, 2-((((8S)-6-(1-(4-fluorobenzyl)-1H-pyrazole-4-carbonyl)-2-(3,3,3-trifluoro-2-methylpropanoyl)-2,6-diazaspiro[3.4]octan-8-yl)methoxy)methyl)-6-(4-(trifluoromethyl)cyclohexyl)benzoic acid], the IC50 is at most 0.5 µM in assay [1], 5 to 10 µM in assay [2] and above 10 µM in assay [3].
`O=C(O)c1c(COC[C@@H]2CN(C(=O)c3cnn(Cc4ccc(F)cc4)c3)CC23CN(C(=O)CC2(C(F)(F)F)CC2)C3)cccc1C1CCC(C(F)(F)F)CC1` (stereo partly drawn) [Compound I-98]: the IC50 in assay [1] was 0.5 to 5 µM; in assay [2] it was above 10 µM; in assay [3], above 10 µM.
`O=C(O)c1c(COC[C@@H]2CN(C(=O)c3cnn(Cc4ccc(F)cc4)c3)CC23CN(C(=O)C2COC2)C3)cccc1C1CCC(C(F)(F)F)CC1` (stereo partly drawn) [Compound I-99]: the IC50 in assay [1], in assay [2] and in assay [3] was above 10 µM each time.
As to `CC(C(=O)N1CC2(CN(C(=O)c3cnn(Cc4ccc(F)cc4)c3)C[C@H]2COCc2cccc(C3CCC(C(F)(F)F)CC3)c2C(=O)O)C1)(C(F)(F)F)C(F)(F)F` (stereo partly drawn) [Compound I-100, (S)-2-(((6-(1-(4-fluorobenzyl)-1H-pyrazole-4-carbonyl)-2-(3,3,3-trifluoro-2-methyl-2-(trifluoromethyl)propanoyl)-2,6-diazaspiro[3.4]octan-8-yl)methoxy)methyl)-6-(4-(trifluoromethyl)cyclohexyl)benzoic acid], the IC50 was at most 0.5 µM in assay [1], above 10 µM in assay [2] and above 10 µM in assay [3].
As for `CC(C)(C(=O)N1CC2(CN(C(=O)c3cnn(Cc4ccc(F)cc4)c3)C[C@H]2COCc2cccc(C3CCC(F)(F)CC3)c2C(=O)O)C1)C(F)(F)F` [Compound I-101, (S)-2-(4,4-difluorocyclohexyl)-6-(((6-(1-(4-fluorobenzyl)-1H-pyrazole-4-carbonyl)-2-(3,3,3-trifluoro-2,2-dimethylpropanoyl)-2,6-diazaspiro[3.4]octan-8-yl)methoxy)methyl)benzoic acid], the results for the IC50 in assay [1], in assay [2] and in assay [3] were at most 0.5 µM, 0.5 to 5 µM and above 10 µM, respectively.
As for `O=C(O)Cc1c(COC[C@@H]2CN(C(=O)c3cnn(Cc4ccc(F)cc4)c3)CC23CN(C(=O)C2(C(F)(F)F)CC2)C3)cccc1C1CCC(C(F)(F)F)CC1` (stereo partly drawn) [Compound I-102, (S)-2-(2-(((6-(1-(4-fluorobenzyl)-1H-pyrazole-4-carbonyl)-2-(1-(trifluoromethyl)cyclopropane-1-carbonyl)-2,6-diazaspiro[3.4]octan-8-yl)methoxy)methyl)-6-(4-(trifluoromethyl)cyclohexyl)phenyl)acetic acid], the IC50 in assay [1] was at most 0.5 µM; in assay [2] it was 0.5 to 5 µM; in assay [3], above 10 µM.
Regarding `CC(C)(Oc1c(COC[C@@H]2CN(C(=O)c3cnn(Cc4ccc(F)cc4)c3)CC23CN(C(=O)C2(C(F)(F)F)CC2)C3)cccc1C1CCC(C(F)(F)F)CC1)C(=O)O` (stereo partly drawn) [Compound I-108], the IC50 in assay [1] was 0.5 to 5 µM; in assay [2] it was above 10 µM; in assay [3], above 10 µM.
With `O=C(O)COc1c(COC[C@@H]2CN(C(=O)c3cnn(Cc4ccc(F)cc4)c3)CC23CN(C(=O)C2(C(F)(F)F)CC2)C3)cccc1C1CCC(C(F)(F)F)CC1` (stereo partly drawn) [Compound I-109, (S)-2-(2-(((6-(1-(4-fluorobenzyl)-1H-pyrazole-4-carbonyl)-2-(1-(trifluoromethyl)cyclopropane-1-carbonyl)-2,6-diazaspiro[3.4]octan-8-yl)methoxy)methyl)-6-(4-(trifluoromethyl)cyclohexyl)phenoxy)acetic acid], the IC50 in assay [1] was at most 0.5 µM; in assay [2], above 10 µM; in assay [3], above 10 µM.
In the case of `O=C(O)c1ccc(C2CCC(C(F)(F)F)CC2)cc1COC[C@@H]1CN(C(=O)c2cnn(Cc3ccc(F)cc3)c2)CC12CN(C(=O)C1(C(F)(F)F)CC1)C2` (stereo partly drawn) [Compound I-111], the IC50 in assay [1] is 0.5 to 5 µM; in assay [2], above 10 µM; in assay [3], above 10 µM.
Consider `O=C(O)c1ccccc1Cn1cc(C(=O)N2CC(COCc3cccc(C4CCC(C(F)(F)F)CC4)c3C(F)(F)F)C3(C2)CN(C(=O)C2(C(F)(F)F)CC2)C3)cn1` (stereo not drawn) [Compound I-114], for which the IC50 in assay [1] is at most 0.5 µM; in assay [2], above 10 µM; in assay [3], above 10 µM.

(Values after patent publication US20260034123A1 (Cedilla Therapeutics, Inc., priority 2022, published 2026).)
